Experimental data as given in patent US20230077362A1 (CORTEVA AGRISCIENCE LLC, priority 2019, published 2023).
Like-named read-outs stand apart in the source and are kept apart here.

Tests used:
[1] = test system: Beet Armyworm (Spodoptera exigua) ("BAW"), second instar larvae; experiment: Bioassay on beet armyworm (BAW), 128-well diet tray assay; assay type: in vivo; conditions: for pest or weed control at 50 µg/cm2: Spodoptera exigua; for BAW rating: Table ABC, species BAW, C = not tested, D = no activity noticed
Procedure, shortened: (§1)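 Sealed trays, 25° C., 14:10 light:dark, 5–7 d. Per-well % mortality recorded, mean of eight wells reported.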

[2] = test system: Cabbage Looper (Trichoplusia ni) ("CL"), second instar larvae; experiment: Bioassay on cabbage looper (CL), 128-well diet tray assay; assay type: in vivo; conditions: for pest or weed control at 50 µg/cm2: Trichoplusia ni; for CL rating: Table ABC, species CL, C = not tested, D = no activity noticed
Procedure, shortened: as §1

[3] = read-out: BAW (Biological Results, rating)
[4] = read-out: CL (Biological Results, rating)

| Structure (SMILES) | pest or weed control at 50 µg/cm2 [1, 3] | pest or weed control at 50 µg/cm2 [2, 4] | pest or weed control at 50 µg/cm2 ([1]; read-out: BAW rating) | pest or weed control at 50 µg/cm2 ([2]; read-out: CL rating) | other results |
| --- | --- | --- | --- | --- | --- |
| CCC(C)c1ccc(OC)cc1N1C(=O)CS/C1=N\C(=O)Nc1ccc(-c2ncn(-c3ccc(OC(F)(F)F)cc3)n2)cc1F (stereo not shown) [Compound J48, (Z)-1-(3-(2-(sec-Butyl)-5-methoxyphenyl)-4-oxothiazolidin-2-ylidene)-3-(2-fluoro-4-(1-(4-(trifluoromethoxy)phenyl)-1H-1,2,4-triazol-3-yl)phenyl)urea] | 50 to 100% | 50 to 100% |  |  |  |
| Cc1ccc(OCCC(F)(F)F)c(N2C(=O)CS/C2=N\C(=O)Nc2ccc(-c3ncn(-c4ccc(S(F)(F)(F)(F)F)cc4)n3)cc2C#N)c1 [Compound J584, (Z)-1-(2-Cyano-4-(1-(4-(pentafluoro-λ^6-sulfaneyl)phenyl)-1H-1,2,4-triazol-3-yl)phenyl)-3-(3-(5-methyl-2-(3,3,3-trifluoropropoxy)phenyl)-4-oxothiazolidin-2-ylidene)urea] |  |  | 50 to 100% | 50 to 100% |  |
| O=C(/N=C1\SCC(=O)N1c1cc(C(F)(F)F)ccc1C(F)(F)F)Nc1ccc(-c2ncn(-c3ccc(OC(F)(F)F)cc3)n2)cc1F [Compound J50, (Z)-1-(3-(2,5-Bis(trifluoromethyl)phenyl)-4-oxothiazolidin-2-ylidene)-3-(2-fluoro-4-(1-(4-(trifluoromethoxy)phenyl)-1H-1,2,4-triazol-3-yl)phenyl)urea] | 50 to 100% | 50 to 100% |  |  |  |
| COc1ccc(C(C)C)c(N2C(=O)CS/C2=N\C(=O)Nc2ccc(-c3ncn(-c4ccc(OC(F)(F)C(F)(F)F)cc4)n3)cc2F)c1 [Compound J27, (Z)-1-(2-Fluoro-4-(1-(4-(perfluoroethoxy)phenyl)-1H-1,2,4-triazol-3-yl)phenyl)-3-(3-(2-isopropyl-5-methoxyphenyl)-4-oxothiazolidin-2-ylidene)urea] | 50 to 100% | 50 to 100% |  |  |  |
| Cc1ccc(Cc2ccccc2)c(N2C(=O)CS/C2=N\C(=O)Nc2ccc(-c3ncn(-c4ccc(OC(F)(F)F)cc4)n3)cc2F)c1 [Compound J457, (Z)-1-(3-(2-Benzyl-5-methylphenyl)-4-oxothiazolidin-2-ylidene)-3-(2-fluoro-4-(1-(4-(trifluoromethoxy)phenyl)-1H-1,2,4-triazol-3-yl)phenyl)urea] |  |  | 50 to 100% | 50 to 100% |  |
| CCCc1ccc(C)cc1N1C(=O)CS/C1=N\C(=O)Nc1ccc(-c2ncn(-c3ccc(S(F)(F)(F)(F)F)cc3)n2)cc1C(F)(F)F [Compound J628, (Z)-1-(3-(5-Methyl-2-propylphenyl)-4-oxothiazolidin-2-ylidene)-3-(4-(1-(4-(pentafluoro-λ^6-sulfaneyl)phenyl)-1H-1,2,4-triazol-3-yl)-2-(trifluoromethyl)phenyl)urea] |  |  | 50 to 100% | 50 to 100% |  |
| COc1ccc(C(C)C)c(N2C(=O)CS/C2=N\C(=O)Nc2ccc(-c3ncn(-c4ccc(OC(F)(F)F)cc4)n3)cc2C#N)c1 [Compound J246, (Z)-1-(2-Cyano-4-(1-(4-(trifluoromethoxy)phenyl)-1H-1,2,4-triazol-3-yl)phenyl)-3-(3-(2-isopropyl-5-methoxyphenyl)-4-oxothiazolidin-2-ylidene)urea] | 50 to 100% | 50 to 100% |  |  |  |
| CC(=O)N(C)c1ccc(C(C)C)c(N2C(=O)CS/C2=N\C(=O)Nc2ccc(-c3ncn(-c4ccc(OC(F)(F)F)cc4)n3)cc2F)c1 [Compound J188, (Z)-N-(3-(2-(((2-Fluoro-4-(1-(4-(trifluoromethoxy)phenyl)-1H-1,2,4-triazol-3-yl)phenyl)carbamoyl)imino)-4-oxothiazolidin-3-yl)-4-isopropylphenyl)-N-methylacetamide] | 50 to 100% | 50 to 100% |  |  |  |
| Cc1ccc(COCCF)c(N2C(=O)CS/C2=N\C(=O)Nc2ccc(-c3ncn(-c4ccc(S(F)(F)(F)(F)F)cc4)n3)cc2C)c1 [Compound J557] |  |  |  |  | BAW rating [1]: A (50-100); CL rating [2]: A (50-100) |
| Cc1ccc(COCC(F)(F)F)c(N2C(=O)CS/C2=N\C(=O)Nc2ccc(-c3ncn(-c4ccc(S(F)(F)(F)(F)F)cc4)n3)cc2C#N)c1 [Compound J569, (Z)-1-(2-Cyano-4-(1-(4-(pentafluoro-λ^6-sulfaneyl)phenyl)-1H-1,2,4-triazol-3-yl)phenyl)-3-(3-(5-methyl-2-((2,2,2-trifluoroethoxy)methyl)phenyl)-4-oxothiazolidin-2-ylidene)urea] |  |  | 50 to 100% | 50 to 100% |  |
| Cc1ccc(OCC(F)(F)F)c(N2C(=O)CS/C2=N\C(=O)Nc2ccc(-c3ncn(-c4cccc(OC(F)(F)F)c4)n3)cc2F)c1 [Compound J121, (Z)-1-(2-Fluoro-4-(1-(3-(trifluoromethoxy)phenyl)-1H-1,2,4-triazol-3-yl)phenyl)-3-(3-(5-methyl-2-(2,2,2-trifluoroethoxy)phenyl)-4-oxothiazolidin-2-ylidene)urea] | 0 to 50% | 50 to 100% |  |  |  |
| Cc1ccc(OCCC(F)(F)F)c(N2C(=O)C(Cl)S/C2=N\C(=O)Nc2ccc(-c3ncn(-c4ccc(OC(F)(F)F)cc4)n3)cc2F)c1 (stereo not shown) [Compound J36, (Z)-1-(5-Chloro-3-(5-methyl-2-(3,3,3-trifluoropropoxy)phenyl)-4-oxothiazolidin-2-ylidene)-3-(2-fluoro-4-(1-(4-(trifluoromethoxy)phenyl)-1H-1,2,4-triazol-3-yl)phenyl)urea] | 50 to 100% | 50 to 100% |  |  |  |
| Cc1ccc(COCC(F)(F)F)c(N2C(=O)CS/C2=N\C(=O)Nc2ccc(-c3ncn(-c4ccc(CC#N)cc4)n3)cc2F)c1 [Compound J425, (Z)-1-(4-(1-(4-(Cyanomethyl)phenyl)-1H-1,2,4-triazol-3-yl)-2-fluorophenyl)-3-(3-(5-methyl-2-((2,2,2-trifluoroethoxy)methyl)phenyl)-4-oxothiazolidin-2-ylidene)urea] |  |  | 50 to 100% | 50 to 100% |  |
| Cc1ccc(COCCC(F)(F)F)c(N2C(=O)CS/C2=N\C(=O)Nc2ccc(-c3ncn(-c4ccc(OC(F)(F)F)cc4)n3)cc2F)c1 [Compound J543] |  |  |  |  | BAW rating [1]: A (50-100); CL rating [2]: A (50-100) |
| CCOCc1ccc(C)cc1N1C(=O)CS/C1=N\C(=O)Nc1ccc(-c2ncn(-c3cc(C(F)(F)F)cc(C(F)(F)F)c3)n2)cc1C [Compound J763, (Z)-1-(4-(1-(3,5-Bis(trifluoromethyl)phenyl)-1H-1,2,4-triazol-3-yl)-2-methylphenyl)-3-(3-(2-(ethoxymethyl)-5-methylphenyl)-4-oxothiazolidin-2-ylidene)urea] |  |  | 50 to 100% | 50 to 100% |  |
| Cc1ccc(COCC(F)(F)F)c(N2C(=O)CS/C2=N\C(=O)Nc2ccc(-c3ncn(-c4ccc(OCC#N)cc4)n3)cc2C)c1 [Compound J359, (Z)-1-(4-(1-(4-(Cyanomethoxy)phenyl)-1H-1,2,4-triazol-3-yl)-2-methylphenyl)-3-(3-(5-methyl-2-((2,2,2-trifluoroethoxy)methyl)phenyl)-4-oxothiazolidin-2-ylidene)urea] |  |  | 50 to 100% | 50 to 100% |  |
| CCC(C)c1ccc(C)cc1N1C(=O)CS/C1=N\C(=O)Nc1ccc(-c2ncn(-c3ccc(C(F)(F)F)cc3)n2)cc1F (stereo not shown) [Compound J65, (Z)-1-(3-(2-(sec-Butyl)-5-methylphenyl)-4-oxothiazolidin-2-ylidene)-3-(2-fluoro-4-(1-(4-(trifluoromethyl)phenyl)-1H-1,2,4-triazol-3-yl)phenyl)urea] | 50 to 100% | 50 to 100% |  |  |  |
